Source: patent US9492471B2, “Methods of treating a disease or disorder associated with Bruton'S Tyrosine Kinase” (Celgene Avilomics Research, Inc., priority 2013, dated 2016)
Read-outs that look alike come from different tables or passages of the source.

Experiments:
Assay in all cases: HotSpot kinase profiling
Type in all cases: biochemical
TXK = molecular target: T1, TXK (Homo sapiens, UniProt P42681)
T1 construct: purchased Reaction Biology Corp
T1 sequence (P42681 1-527): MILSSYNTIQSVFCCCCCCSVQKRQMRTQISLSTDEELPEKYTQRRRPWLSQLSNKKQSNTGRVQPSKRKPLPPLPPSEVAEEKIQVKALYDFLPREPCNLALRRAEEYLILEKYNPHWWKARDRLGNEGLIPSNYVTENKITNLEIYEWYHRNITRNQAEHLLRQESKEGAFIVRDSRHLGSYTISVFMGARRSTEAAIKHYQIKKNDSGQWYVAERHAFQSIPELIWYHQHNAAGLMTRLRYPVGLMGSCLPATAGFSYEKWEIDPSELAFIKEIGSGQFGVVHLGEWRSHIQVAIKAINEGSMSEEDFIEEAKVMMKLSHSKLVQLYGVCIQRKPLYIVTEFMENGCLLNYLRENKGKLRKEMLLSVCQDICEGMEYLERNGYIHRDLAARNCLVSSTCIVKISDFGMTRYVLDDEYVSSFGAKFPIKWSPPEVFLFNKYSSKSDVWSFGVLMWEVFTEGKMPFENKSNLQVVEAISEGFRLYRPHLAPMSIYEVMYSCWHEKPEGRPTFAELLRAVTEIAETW
Outline: (§1)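 Activity is measured by radiolabel transfer captured on P81 filters after a 2 h room-temperature reaction of kinase, substrate and cofactors. Values are percent inhibition against DMSO.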

MST4 = molecular target: T2, MST4 (Homo sapiens, UniProt Q9P289)
T2 construct: purchased Reaction Biology Corp
Outline: as §1

RSK4 = molecular target: T3, RSK4 (Homo sapiens, UniProt Q9UK32)
T3 construct: purchased Reaction Biology Corp
Outline: as §1

CDK2/cyclin A1 = molecular target: T4, CDK2/cyclin A1 (Homo sapiens, UniProt P24941)
T4 construct: purchased Reaction Biology Corp
Outline: as §1

Btk = molecular target: T5, Btk (Homo sapiens, UniProt Q06187)
T5 construct: purchased Reaction Biology Corp
Outline: as §1

RIPK5 = molecular target: T6, RIPK5 (Homo sapiens, UniProt Q6XUX3)
T6 construct: purchased Reaction Biology Corp
T6 sequence (Q6XUX3 1-929): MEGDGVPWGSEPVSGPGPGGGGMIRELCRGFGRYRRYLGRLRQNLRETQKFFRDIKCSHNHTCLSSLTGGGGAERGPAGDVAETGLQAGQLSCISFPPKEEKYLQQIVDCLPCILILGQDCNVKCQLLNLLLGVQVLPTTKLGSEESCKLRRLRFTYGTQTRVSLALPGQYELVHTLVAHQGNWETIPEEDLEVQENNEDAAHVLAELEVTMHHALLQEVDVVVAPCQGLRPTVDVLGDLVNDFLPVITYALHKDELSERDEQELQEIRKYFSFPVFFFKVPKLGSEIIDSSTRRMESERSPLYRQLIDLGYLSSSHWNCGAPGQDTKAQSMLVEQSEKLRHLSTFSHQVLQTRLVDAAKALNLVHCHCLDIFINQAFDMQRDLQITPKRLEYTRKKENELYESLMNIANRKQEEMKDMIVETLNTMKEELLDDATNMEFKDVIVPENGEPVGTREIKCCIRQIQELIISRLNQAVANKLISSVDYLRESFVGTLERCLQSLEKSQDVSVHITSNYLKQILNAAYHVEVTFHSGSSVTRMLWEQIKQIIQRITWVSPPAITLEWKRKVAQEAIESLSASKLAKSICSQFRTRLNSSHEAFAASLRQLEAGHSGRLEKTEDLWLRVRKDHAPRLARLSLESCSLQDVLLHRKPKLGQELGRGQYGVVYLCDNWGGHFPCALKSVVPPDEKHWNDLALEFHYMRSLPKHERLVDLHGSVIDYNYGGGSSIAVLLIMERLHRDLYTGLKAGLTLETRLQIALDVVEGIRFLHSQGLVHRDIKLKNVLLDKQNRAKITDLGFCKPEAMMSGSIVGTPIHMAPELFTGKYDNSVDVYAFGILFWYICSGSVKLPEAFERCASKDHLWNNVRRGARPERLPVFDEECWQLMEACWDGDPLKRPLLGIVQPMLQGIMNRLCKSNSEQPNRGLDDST
Outline: as §1

PHKg2 = molecular target: T7, PHKg2 (Homo sapiens, UniProt P15735)
T7 construct: purchased Reaction Biology Corp
T7 sequence (P15735 1-406): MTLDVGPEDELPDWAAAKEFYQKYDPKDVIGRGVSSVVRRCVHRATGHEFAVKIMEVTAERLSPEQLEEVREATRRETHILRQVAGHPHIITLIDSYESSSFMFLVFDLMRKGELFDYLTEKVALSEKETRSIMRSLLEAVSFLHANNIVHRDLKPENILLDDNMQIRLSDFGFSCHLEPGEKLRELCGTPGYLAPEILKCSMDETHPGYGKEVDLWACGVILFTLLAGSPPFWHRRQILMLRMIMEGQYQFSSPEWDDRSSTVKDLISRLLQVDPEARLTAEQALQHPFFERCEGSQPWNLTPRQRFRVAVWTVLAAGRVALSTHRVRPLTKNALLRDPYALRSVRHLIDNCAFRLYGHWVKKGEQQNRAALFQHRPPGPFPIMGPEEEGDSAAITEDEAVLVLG
Outline: as §1

[1] = read-out: % Enzyme Activity (relative to DMSO controls) Run 1
[2] = read-out: % Enzyme Activity (relative to DMSO controls) Run 2

T5 sequence (Q06187 whole entry): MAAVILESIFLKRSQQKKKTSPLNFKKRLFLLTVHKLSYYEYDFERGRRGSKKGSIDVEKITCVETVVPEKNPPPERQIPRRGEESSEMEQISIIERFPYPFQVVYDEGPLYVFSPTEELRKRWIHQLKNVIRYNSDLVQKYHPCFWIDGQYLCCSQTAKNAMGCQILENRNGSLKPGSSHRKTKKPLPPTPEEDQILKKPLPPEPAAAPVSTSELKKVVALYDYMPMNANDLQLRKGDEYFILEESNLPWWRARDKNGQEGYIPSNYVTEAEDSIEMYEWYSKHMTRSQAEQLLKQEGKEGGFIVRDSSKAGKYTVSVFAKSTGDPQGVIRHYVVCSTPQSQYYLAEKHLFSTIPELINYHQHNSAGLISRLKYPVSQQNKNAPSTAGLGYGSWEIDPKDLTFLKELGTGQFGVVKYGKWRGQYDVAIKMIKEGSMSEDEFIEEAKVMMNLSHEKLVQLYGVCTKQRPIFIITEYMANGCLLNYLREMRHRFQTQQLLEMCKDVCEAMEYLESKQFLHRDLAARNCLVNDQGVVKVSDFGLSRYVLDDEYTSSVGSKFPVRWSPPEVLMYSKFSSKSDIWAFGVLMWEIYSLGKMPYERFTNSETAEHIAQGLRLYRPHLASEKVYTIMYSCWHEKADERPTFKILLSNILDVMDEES
T2 sequence (Q9P289 whole entry): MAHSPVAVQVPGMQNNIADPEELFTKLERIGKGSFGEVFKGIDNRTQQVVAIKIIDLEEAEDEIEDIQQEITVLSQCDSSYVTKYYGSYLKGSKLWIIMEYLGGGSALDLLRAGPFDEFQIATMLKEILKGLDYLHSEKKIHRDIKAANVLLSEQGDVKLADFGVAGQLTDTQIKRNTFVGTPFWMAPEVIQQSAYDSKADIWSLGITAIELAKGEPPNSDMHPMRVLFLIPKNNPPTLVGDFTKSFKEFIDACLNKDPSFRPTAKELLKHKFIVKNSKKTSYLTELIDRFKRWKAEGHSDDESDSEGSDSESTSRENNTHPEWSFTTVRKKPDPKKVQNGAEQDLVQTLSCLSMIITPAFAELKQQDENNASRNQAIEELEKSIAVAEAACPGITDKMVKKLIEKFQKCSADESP
T3 sequence (Q9UK32 whole entry): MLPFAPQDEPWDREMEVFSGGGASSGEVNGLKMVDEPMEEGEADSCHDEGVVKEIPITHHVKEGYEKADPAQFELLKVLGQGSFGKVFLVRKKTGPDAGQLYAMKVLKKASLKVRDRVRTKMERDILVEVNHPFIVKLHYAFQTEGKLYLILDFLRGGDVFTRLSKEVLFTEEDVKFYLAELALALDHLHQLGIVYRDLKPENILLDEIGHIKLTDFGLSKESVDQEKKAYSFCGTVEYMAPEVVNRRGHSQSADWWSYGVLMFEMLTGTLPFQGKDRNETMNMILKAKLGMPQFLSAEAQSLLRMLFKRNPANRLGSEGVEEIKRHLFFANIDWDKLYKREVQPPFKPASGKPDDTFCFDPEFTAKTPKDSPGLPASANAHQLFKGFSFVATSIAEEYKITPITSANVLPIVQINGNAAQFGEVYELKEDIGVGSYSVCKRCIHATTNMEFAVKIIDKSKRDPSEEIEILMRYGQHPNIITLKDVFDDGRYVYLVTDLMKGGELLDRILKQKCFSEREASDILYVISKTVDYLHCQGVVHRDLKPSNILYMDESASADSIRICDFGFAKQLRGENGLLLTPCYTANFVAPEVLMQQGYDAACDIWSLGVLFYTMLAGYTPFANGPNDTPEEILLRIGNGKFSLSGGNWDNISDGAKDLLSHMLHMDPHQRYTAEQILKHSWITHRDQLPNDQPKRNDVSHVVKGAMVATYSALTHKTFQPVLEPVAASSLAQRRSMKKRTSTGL

**Q.** For C=CC(=O)Nc1cccc(Nc2nc(Nc3ccc(OCCOC)c(F)c3)ncc2F)c1 [Compound 2], which inhibition at 3 µM (TXK) is on record?
**A.** 99.8%

**Q.** And the remaining activity at 3 µM (TXK; [1])?
**A.** 0.42%

**Q.** What about the remaining activity at 3 µM (TXK; [2]) of the same molecule?
**A.** 0.03%

**Q.** What about the inhibition at 3 µM (MST4) of the same molecule?
**A.** -1.09%

**Q.** And the remaining activity at 3 µM (MST4; [1])?
**A.** 97.8%

**Q.** And the remaining activity at 3 µM (MST4; [2])?
**A.** 104%

**Q.** And the inhibition at 3 µM (RSK4)?
**A.** 22.8%

**Q.** And the remaining activity at 3 µM (RSK4; [1])?
**A.** 77.2%

**Q.** What about the remaining activity at 3 µM (RSK4; [2]) of the same molecule?
**A.** 77.2%

**Q.** And the inhibition at 3 µM (CDK2/cyclin A1)?
**A.** 22%

**Q.** What about the remaining activity at 3 µM (CDK2/cyclin A1; [1]) of the same molecule?
**A.** 78.2%

**Q.** And the remaining activity at 3 µM (CDK2/cyclin A1; [2])?
**A.** 77.7%

**Q.** And the inhibition at 3 µM (Btk)?
**A.** 95.5%

**Q.** And the remaining activity at 3 µM (Btk; [1])?
**A.** 3.69%

**Q.** What about the remaining activity at 3 µM (Btk; [2]) of the same molecule?
**A.** 5.4%

**Q.** What about the inhibition at 3 µM (RIPK5) of the same molecule?
**A.** 2.32%

**Q.** What about the remaining activity at 3 µM (RIPK5; [1]) of the same molecule?
**A.** 96.1%

**Q.** What about the remaining activity at 3 µM (RIPK5; [2]) of the same molecule?
**A.** 99.2%

**Q.** What about the inhibition at 3 µM (PHKg2) of the same molecule?
**A.** -14.7%

**Q.** What about the remaining activity at 3 µM (PHKg2; [1]) of the same molecule?
**A.** 118%

**Q.** What about the remaining activity at 3 µM (PHKg2; [2]) of the same molecule?
**A.** 112%
